In US20020155192A1, “Yeast transport isoforms” (priority 2000, published 2002):
Read-outs that look alike come from different tables or passages of the source.

Tests used:
Assay type in all cases: biochemical
Odc2p [1] = molecular target: T1, Odc2p (Saccharomyces cerevisiae, UniProt Q99297); assay: Dependence on internal substrate of [14C]oxoglutarate uptake into proteoliposomes reconstituted with recombinant Odc2p; details: for [14C]oxoglutarate transport: proteoliposomes preloaded with 20 mM internal substrate, 0.6 mM [14C]oxoglutarate, 45 seconds
T1 construct: made in house; host or cells: S. cerevisiae odc1Δodc2Δ (YPH499 background) carrying pYES2-based pODC2; purified from mitochondria on Ni-NTA agarose
T1 sequence (Q99297 1-307): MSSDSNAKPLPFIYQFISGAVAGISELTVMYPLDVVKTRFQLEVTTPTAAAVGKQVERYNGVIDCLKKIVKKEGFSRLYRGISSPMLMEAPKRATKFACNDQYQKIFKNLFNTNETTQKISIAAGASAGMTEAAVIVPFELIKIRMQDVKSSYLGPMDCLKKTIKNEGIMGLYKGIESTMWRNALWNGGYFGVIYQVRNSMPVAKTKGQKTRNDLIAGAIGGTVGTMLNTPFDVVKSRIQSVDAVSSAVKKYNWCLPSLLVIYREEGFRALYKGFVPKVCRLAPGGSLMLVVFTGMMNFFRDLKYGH
Experimental: (§1) Reconstitution of the ODC proteins into liposomes—Purified ODC proteins were reconstituted by cyclic removal of the detergent with a hydrophobic column (13). The composition of the initial mixture used for reconstitution was: 200 μl of purified isoform (0.3-0.4 μg of protein), 70 μl of 10% Triton X-114, 100 μl of 10% phospholipids in the form of sonicated liposomes, 20 mM oxoglutarate (except where otherwise indicated), 10 mM Pipes (pH 7.0), 0.7 mg of cardiolipin (Sigma) and water to a final volume of 700 μl. These components were mixed thoroughly, and the mixture was recycled 13 times through an Amberlite column (Supelco) (3.0 cm×0.5 cm) preequilibrated with a buffer containing 10 mM Pipes (pH 7.0) and with the substrate at the same concentration as in the starting mixture. All operations were performed at 4° C., except the passages through Amberlite, which were carried out at room temperature.
(§2) External substrate was removed from proteoliposomes on a Sephadex G-75 column preequilibrated with buffer F (50 mM NaCl and 10 mM PIPES, pH 7.0). Transport at 25° C. was started by adding [^14C]oxoglutarate (unless otherwise indicated) to the proteoliposomes, and terminated by addition of 30 mM pyridoxal 5′-phosphate and 10 mM bathophenanthroline (the “inhibitor-stop” method (13)). In controls, inhibitors were added with the labelled substrate. The external radioactivity was removed on Sephadex G-75 and the internal radioactivity was measured. […] The initial rate of transport was calculated in mmol/min per g protein from the time course of isotope equilibration (13). Various other transport activities were also assayed by the inhibitor-stop method. For efflux measurements, the internal substrate pool of the proteoliposomes was made radioactive by carrier-mediated exchange equilibration (13) with 0.1 mM [^14C]oxoglutarate added at high specific radioactivity. After 60 min, the residual external radioactivity was removed by passing the proteoliposomes again through a column of Sephadex G-75. Efflux was started by adding unlabelled external substrate or buffer F alone and terminated by adding the inhibitors indicated above.
(§3) The substrate specificity of purified Odc1p and Odc2p was investigated further by measuring the uptake of [^14C]oxoglutarate into proteoliposomes which had been preloaded with various substrates.
(§4) Proteoliposomes were preloaded internally with various substrates (concentration, 20 mM). Transport was started by adding [^14C]oxoglutarate (final concentration, 0.6 mM) and terminated after 45 seconds.

Odc1p [2] = molecular target: T2, Odc1p (Saccharomyces cerevisiae, UniProt Q03028); assay: Effect of inhibitors and external compounds on the [14C]oxoglutarate/oxoglutarate exchange by proteoliposomes reconstituted with Odc1p; details: for effect of oxomonocarboxylates on the rate of uptake of 0.4 mM oxoglutarate (in words): 8 mM, 20 times greater than the substrate, data not shown
T2 construct: made in house; host or cells: S. cerevisiae odc1Δodc2Δ (YPH499 background) carrying pYES2-based pODC1; purified from mitochondria on Ni-NTA agarose
T2 sequence (Q03028 1-310): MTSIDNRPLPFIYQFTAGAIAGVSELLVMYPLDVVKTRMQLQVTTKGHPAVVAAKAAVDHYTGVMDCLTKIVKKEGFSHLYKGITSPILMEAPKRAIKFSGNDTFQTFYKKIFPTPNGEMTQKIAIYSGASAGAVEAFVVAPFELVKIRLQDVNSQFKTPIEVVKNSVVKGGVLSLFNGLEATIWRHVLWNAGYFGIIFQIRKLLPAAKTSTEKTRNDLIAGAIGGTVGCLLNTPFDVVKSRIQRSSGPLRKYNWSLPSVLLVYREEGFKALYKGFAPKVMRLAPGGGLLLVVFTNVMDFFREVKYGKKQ
Experimental: FIG. 5. Effect of dicarboxylates and 2-oxodicarboxylates with different carbon chain length on the rate of [^14C]oxoglutarate uptake into proteoliposomes reconstituted with recombinant Odc1p. Proteoliposomes were preloaded with 20 mM oxoglutarate and reconstituted with recombinant Odc1p. Transport was initiated by the addition of 0.4 mM [^14C]oxoglutarate and terminated after 45 seconds. Oxalate, malonate, succinate, glutarate, adipate, pimelate, suberate (▪) and the corresponding 2-oxoacids (●) were added simultaneously with [1^4C]oxoglutarate at 4.0 mM concentration.
as §1, §2
(§5) In addition, the ability of non-radioactive potential substrates to inhibit the oxoglutarate/oxoglutarate exchange was examined.
Proteoliposomes were preloaded internally with 20 mM oxoglutarate and transport was initiated by the addition of 0.4 mM [^14C]oxoglutarate.

Odc1p [3] = molecular target: T2, Odc1p; assay: Dependence on internal substrate of [14C]oxoglutarate uptake into proteoliposomes reconstituted with recombinant Odc1p; details: for [14C]oxoglutarate transport: proteoliposomes preloaded with 20 mM internal substrate, 0.6 mM [14C]oxoglutarate, 45 seconds
Experimental: as §1, §2, §3, §4

Odc2p [4] = molecular target: T1, Odc2p; assay: Effect of inhibitors and external compounds on the [14C]oxoglutarate/oxoglutarate exchange by proteoliposomes reconstituted with Odc2p; details: for effect of oxomonocarboxylates on the rate of uptake of 0.4 mM oxoglutarate (in words): 8 mM, 20 times greater than the substrate
Experimental: as §1, §2, §5
Proteoliposomes were preloaded internally with 20 mM oxoglutarate and transport was initiated by the addition of 0.4 mM [^14C]oxoglutarate. The incubation time was 45 seconds. Thiol reagents and α-cyanocinnamate were added 2 min before the labelled substrate; the other inhibitors and external substrates were added together with [^14C]oxoglutarate. The final concentration of the inhibitors was 4 mM, except for mercurials (10 μM), carboxyatractyloside (0.1 mM), N-ethylmaleimide and α-cyanocinnamate (2 mM).

Odc2p [5] = molecular target: T1, Odc2p; assay: Homoexchange of other substrates in proteoliposomes reconstituted with Odc2p; details: internal concentration 10 mM, external concentration 1 mM
Experimental: as §2
(§6) In order to obtain further information about the mechanism of transport catalyzed by Odc1p and Odc2p, the efflux of [^14C]oxoglutarate from pre-labelled active proteoliposomes was investigated as it provides a more convenient assay for unidirectional transport (13).

Odc1p [6] = molecular target: T2, Odc1p; assay: Homoexchange of other substrates in proteoliposomes reconstituted with Odc1p; details: internal concentration 10 mM, external concentration 1 mM
Experimental: as §2, §6

[7] = Odc2p, proteoliposomes preloaded with various substrates
[8] = Odc1p, added with 0.4 mM [14C]oxoglutarate, 4.0 mM in FIG. 5, partly data not shown
[9] = Odc1p, proteoliposomes preloaded with various substrates

| Compound | [14C]oxoglutarate transport (Odc2p [1]; Odc2p) [mmol/min per g protein] | [14C]oxoglutarate uptake with the internal substrate (in words) (Odc2p [1]; [7]) | [14C]oxoglutarate transport (Odc1p [3]; Odc1p) [mmol/min per g protein] | [14C]oxoglutarate uptake with the internal substrate (in words) (Odc1p [3]; [9]) | other results |
| --- | --- | --- | --- | --- | --- |
| O=C(O)CC(=O)O [Malonate] | 2.2 | very low activity | 4.8 | very low activity | effect of non-radioactive potential substrates on the rate of oxoglutarate uptake (in words) (Odc1p [2]; [8]): virtually no effect; effect of non-radioactive potential substrates on the rate of oxoglutarate uptake (in words) (Odc2p [4]; Odc2p, data not shown): virtually no effect |
| O=C(O)C(=O)O [oxalate] |  | no exchange |  | no exchange | effect of non-radioactive potential substrates on the rate of oxoglutarate uptake (in words) (Odc1p [2]; [8]): virtually no effect; effect of non-radioactive potential substrates on the rate of oxoglutarate uptake (in words) (Odc2p [4]; Odc2p, data not shown): virtually no effect |
| NC(CCCC(=O)O)C(=O)O (stereo not shown) [2-aminoadipate] |  | no exchange |  | no exchange |  |
| O=C(O)CCCCCC(=O)O [Pimelate] | 10.4 | taken up efficiently | 48.4 | taken up efficiently | effect of non-radioactive potential substrates on the rate of oxoglutarate uptake (in words) (Odc1p [2]): significant inhibition; effect of non-radioactive potential substrates on the rate of oxoglutarate uptake (in words) (Odc2p [4]): significant inhibition |
| CC[C@H](O)C(=O)O [2-hydroxybutyrate] |  | no exchange |  | no exchange |  |
| O=C(O)/C=C\C(=O)O [Maleate] | 2.6 | very low activity | 7.1 | very low activity | effect of non-radioactive potential substrates on the rate of oxoglutarate uptake (in words) (Odc1p [2]; [8]): no effect; effect of non-radioactive potential substrates on the rate of oxoglutarate uptake (in words) (Odc2p [4]; Odc2p, data not shown): no effect |
| O=C(O)/C=C/C(=O)O [Fumarate] | 2.4 | very low activity | 8.9 | very low activity | effect of non-radioactive potential substrates on the rate of oxoglutarate uptake (in words) (Odc1p [2]; [8]): no effect; effect of non-radioactive potential substrates on the rate of oxoglutarate uptake (in words) (Odc2p [4]; Odc2p, data not shown): no effect |
| C[N+](C)(C)CC(O)CC(=O)[O-] (stereo not shown) [carnitine] |  | no exchange |  | no exchange | homoexchange catalyzed by the proteoliposomes (in words) (Odc2p [5]): did not catalyze homoexchanges; homoexchange catalyzed by the proteoliposomes (in words) (Odc1p [6]): did not catalyze homoexchanges |
| Nc1ncnc2c1ncn2[C@@H]1O[C@H](COP(=O)(O)OP(=O)(O)OP(=O)(O)O)[C@@H](O)[C@H]1O [ATP] |  | no exchange |  | no exchange |  |
| O=C(O)CCCCC(=O)O [Adipate] | 16.7 | taken up efficiently | 65.0 | taken up efficiently | effect of non-radioactive potential substrates on the rate of oxoglutarate uptake (in words) (Odc1p [2]): significant inhibition; effect of non-radioactive potential substrates on the rate of oxoglutarate uptake (in words) (Odc2p [4]): significant inhibition |
| phosphate |  | no exchange |  | no exchange | homoexchange catalyzed by the proteoliposomes (in words) (Odc2p [5]): did not catalyze homoexchanges; homoexchange catalyzed by the proteoliposomes (in words) (Odc1p [6]): did not catalyze homoexchanges |
| NCCC[C@H](N)C(=O)O [ornithine] |  |  |  |  | homoexchange catalyzed by the proteoliposomes (in words) (Odc2p [5]): did not catalyze homoexchanges; homoexchange catalyzed by the proteoliposomes (in words) (Odc1p [6]): did not catalyze homoexchanges |
| O=C(O)CCCCCCC(=O)O [Suberate] | 0.4 | very low activity | 2.8 | very low activity | effect of non-radioactive potential substrates on the rate of oxoglutarate uptake (in words) (Odc1p [2]): virtually no effect; effect of non-radioactive potential substrates on the rate of oxoglutarate uptake (in words) (Odc2p [4]): virtually no effect |
| N[C@@H](CCC(=O)O)C(=O)O [glutamate] |  | no exchange |  | no exchange | homoexchange catalyzed by the proteoliposomes (in words) (Odc2p [5]): did not catalyze homoexchanges; homoexchange catalyzed by the proteoliposomes (in words) (Odc1p [6]): did not catalyze homoexchanges |
| NC(CCCCC(=O)O)C(=O)O (stereo not shown) [2-aminopimelate] |  | no exchange |  | no exchange |  |
| CCCC(=O)C(=O)O [2-oxovalerate] |  | no exchange |  | no exchange | effect of oxomonocarboxylates on the rate of uptake of 0.4 mM oxoglutarate (in words) (Odc1p [2]; Odc1p): did not influence; effect of oxomonocarboxylates on the rate of uptake of 0.4 mM oxoglutarate (in words) (Odc2p [4]; Odc2p, data not shown): did not influence |
| O=S(O)(O)=S [thiosulfate] |  |  |  |  | [14C]oxoglutarate uptake with the internal substrate (in words) (Odc2p [1]): no exchange; [14C]oxoglutarate uptake with the internal substrate (in words) (Odc1p [3]): no exchange |
| O=C(O)C[C@@H](O)C(=O)O [D-malate] | 10.5 | taken up efficiently | 52.1 | taken up efficiently |  |
| CCC(=O)C(=O)O [2-oxobutyrate] |  | no exchange |  | no exchange | effect of oxomonocarboxylates on the rate of uptake of 0.4 mM oxoglutarate (in words) (Odc1p [2]; Odc1p): did not influence; effect of oxomonocarboxylates on the rate of uptake of 0.4 mM oxoglutarate (in words) (Odc2p [4]; Odc2p, data not shown): did not influence |
